Where “and” joins values, the source holds several entries; their conditions need not be identical. Identical values can stand only once. Like-named read-outs stand apart in the source and are kept apart here.
Columns and labels:
Type in all cases: cell-based
[1] = system: BxPC-3 human pancreatic adenocarcinoma cells; test: Comparative study of the activity of camptothecins (CCK-8 cell killing)
Description: (§1) KB oral epithelial cancer cells (purchased from: ATCC) were cultured in DMEM medium supplemented with 10% FBS; NCI-N87 human gastric cancer cells (purchased from: ATCC) were cultured in RPMI1640 medium supplemented with 10% FBS; HT29 human colon cancer cells (purchased from: ATCC) were cultured in RPMI1640 medium supplemented with 10% FBS; and BxPC-3 human pancreatic adenocarcinoma cells (purchased from: ATCC) were cultured in RPMI1640 medium supplemented with 10% FBS.
(§2) Using corresponding media described above and in cell plates, the density of KB cells was adjusted to 2×10^4/mL; the density of NCI-N87 cells was adjusted to 5×10^4/mL; the density of HT29 cells was adjusted to 5×10^4/mL, and the cells were plated onto 96-well transparent flat bottom plates, at 100 µL/well, and cultured overnight; and the density of BxPC-3 cells was adjusted to 5×10^4/mL.
(§3) Samples to be detected were diluted to 20 μM with corresponding media, then 5-fold gradient dilution was performed, and 9 concentrations were obtained. A well having cells but with no any sample added was set as the well showing maximum cell growth; and a well having no cells was set as the well of medium background. The diluted samples were added into the cell plates, at 100 μL/well, which were then incubated in a C02 incubator for 96 hours. After the incubation, CCK-8 (purchased from: DOJINDO LABORATORIES) prepared beforehand was added into the plates, at 20 μL/well, and after further 3 hours incubation in the C02 incubator, […] were read on a microplate reader.
(§4) Data obtained was fitted to a four-parameter curve using software Prism7, and equation for calculating maximum killing is: maximum killing (%)=1−(OD450 value of the well showing maximum killing—OD450 value of the well of medium background)/(OD450 value of the well showing maximum cell growth—OD450 value of the cell of medium background)[…].

[2] = system: NCI-N87 human gastric cancer cells; test: as above; settings: Homo sapiens, NCI-N87, 96 h, read-out: Maximum Killing (%), NCI-N87, killing days 4 days
Description: as §1, §2, §3, §4

[3] = system: MDA-MB-231/TROP2; test: Proliferation-inhibiting effect on tumor cells (SRB or MTT assay); settings: Homo sapiens, MDA-MB-231, 144 h
Description: (§5) For cells growing by adherence, SRB assay was used to detect effect of antibody-drug conjugates or camptothecins on the proliferation of tumor cells in vitro cultured. A certain number of cells in exponential growth phase were inoculated in 96-well cell culture plates, and when the cells grew by adherence overnight, antibody drug conjugates or camptothecins of different concentrations were added into the cells. 144 hours later, the cells were fixed with trichloroacetic acid, and then stained with SRB (prepared in 1% glacial acetic acid at a concentration of 4 mg/mL). 10 mM Tris solution was added into each well to solubilize the bound SRB. OD values at 510 nm were read on a microplate reader.
(§6) Inhibition (%)=([…] of control well−OD value of dosed well)/OD value of control well×100%
(§7) For cells growing in suspension, MTT assay was used to detect effect of antibody-drug conjugates or camptothecins on the proliferation of tumor cells in vitro cultured. A certain number of cells in exponential growth phase were inoculated in 96-well cell culture plates, and when the cells grew in suspension overnight, antibody-drug conjugates or camptothecins of different concentrations were added into the cells. 144 hours later, MTT was added to each well of the plates, and the incubation was continued for 4 hours at 37° C. in a 5% CO2 saturated humidity incubator. Next, 100 μL of SDS-isobutanol-HCl solution was added into each well of the plates, and OD values at 570 nm and 690 nm were read on a microplate reader.
(§8) Half maximal inhibitory concentration (IC50) was calculated from the inhibition (%) at those different concentrations using the software Graphpad Prism 8.0. The experiment was repeated once and the data was expressed as mean±SD.

[4] = system: Calu-3; test: as above; settings: Homo sapiens, Calu-3, 144 h
Description: as §5, §6, §7, §8

[5] = system: MDA-MB-231; test: as above; settings: Homo sapiens, MDA-MB-231, 144 h
Description: as §5, §6, §7, §8

[6] = system: MDA-MB-468; test: as above; settings: Homo sapiens, MDA-MB-468, 144 h, read-out: IC50 (nM) Mean ± SD
Description: as §5, §6, §7, §8

[7] = system: HT1376; test: as above; settings: Homo sapiens, HT-1376, 144 h
Description: as §5, §6, §7, §8

[8] = system: BxPC-3; test: as above; settings: Homo sapiens, BXPC-3, 144 h
Description: as §5, §6, §7, §8

[9] = system: HT-29; test: as above; settings: Homo sapiens, HT-29, 144 h
Description: as §5, §6, §7, §8

[10] = system: MCF-7; test: as above; settings: Homo sapiens, MCF7, 144 h
Description: as §5, §6, §7, §8

[11] = system: NCI-N87; test: as above; settings: Homo sapiens, NCI-N87, 144 h
Description: as §5, §6, §7, §8

[12] = system: Colo 205; test: as above; settings: Homo sapiens, COLO 205, 144 h
Description: as §5, §6, §7, §8

[13] = system: BT-20; test: as above; settings: Homo sapiens, BT-20, 144 h
Description: as §5, §6, §7, §8

[14] = system: BT-474; test: as above; settings: Homo sapiens, BT-474, 144 h
Description: as §5, §6, §7, §8

[15] = read-out: IC50 (nM) 1st experiment
[16] = read-out: IC50 (nM) 2nd experiment

CC[C@@]1(O)C(=O)OCc2c1cc1n(c2=O)Cc2c-1nc1ccc(N)c3c1c2C(F)(F)CC3 [Compound 3]
EC50 ([1]; BxPC-3, killing days 4 days): 3.23 nM and 5.82 nM | Emax ([1]; Homo sapiens, BXPC-3, 96 h, read-out: Maximum Killing (%), BxPC-3, killing days 4 days): 98% | Emax [2]: 92.1% | IC50 [3, 15]: 0.1 nM | IC50 [3, 16]: 0.1 nM | IC50 ([3]; read-out: IC50 (nM) Mean ± SD): 0.06 ± 0.01 nM | IC50 [4, 15]: 0.4 nM | IC50 [4, 16]: 0.4 nM | IC50 ([4]; read-out: IC50 (nM) Mean ± SD): 0.4 ± 0.02 nM | IC50 [5, 15]: 0.8 nM | IC50 [5, 16]: 0.8 nM | IC50 ([5]; read-out: IC50 (nM) Mean ± SD): 0.69 ± 0.15 nM | IC50 [6]: 0.16 ± 0.01 nM | IC50 [7, 15]: 1 nM | IC50 [7, 16]: 0.9 nM | IC50 ([7]; read-out: IC50 (nM) Mean ± SD): 0.98 ± 0.08 nM | IC50 [8, 15]: 0.2 nM | IC50 [8, 16]: 0.2 nM | IC50 ([8]; read-out: IC50 (nM) Mean ± SD): 0.17 ± 0.01 nM | IC50 [9, 15]: 0.4 nM | IC50 [9, 16]: 0.4 nM | IC50 ([9]; read-out: IC50 (nM) Mean ± SD): 0.4 ± 0.01 nM | IC50 [10, 15]: 0.2 nM | IC50 [10, 16]: 0.1 nM | IC50 ([10]; read-out: IC50 (nM) Mean ± SD): 0.11 ± 0.08 nM | IC50 [11, 15]: 0.4 nM | IC50 [11, 16]: 0.5 nM | IC50 ([11]; read-out: IC50 (nM) Mean ± SD): 0.47 ± 0.07 nM | IC50 [12, 15]: 0.2 nM | IC50 [12, 16]: 0.2 nM | IC50 ([12]; read-out: IC50 (nM) Mean ± SD): 0.21 ± 0.05 nM | IC50 [13, 15]: 0.5 nM | IC50 [13, 16]: 0.5 nM | IC50 ([13]; read-out: IC50 (nM) Mean ± SD): 0.53 ± 0.01 nM | IC50 [14, 15]: 2.3 nM | IC50 [14, 16]: 0.5 nM | IC50 ([14]; read-out: IC50 (nM) Mean ± SD): 1.43 ± 1.25 nM
